Patent US20090176857A1, “Use of Organic Compounds” (priority 2005, published 2009)

What was measured:
[1] = system: women with IBS-C (Rome II criteria) and IBS-M (modification of Rome II); assay: Randomized, double-blind, placebo-controlled, multicenter study, 4 weeks treatment, in patients with IBS-C and IBS-M; type: in vivo; settings: for days/week with no BMs (mean) / stool consistency score using a 7-patient scale (mean) / days/wk with straining (mean) / weekly BM frequency (mean): p<0.05
Experimental: Evaluation of the effect of tegaserod (T) on multiple symptoms in women with mixed/alternating bowel habits.
METHODS: A randomized, double-blind, placebo-controlled, multicenter study was performed in patients with IBS-C (based on Rome II criteria) and IBS-M (modification of Rome II). The primary efficacy variable was the patients' assessment of satisfactory relief over 4 weeks treatment with T 6 mg bid or Placebo (P). The proportion of patients reporting satisfactory relief of 4 weeks (75% rule) and improvement during each of the 4 weeks in individual IBS symptoms were also assessed. Treatments were compared using a generalized linear model with logit link.
RESULTS: 661 women were randomized (IBS-C 337; IBS-M 324). Baseline symptom assessment clearly distinguished between the IBS-C and the IBS-M cohorts. Statistically significant differences were found between the two cohorts in bowel movement (BM) frequency, stool consistency and straining. T provided statistically significant improvement in satisfactory relief of IBS symptoms over a 4-week treatment (odds ratio 1.75; 95% CI: 1.35, 2.25; p-value<0.001) for the IBS-C and IBS-M cohorts. […] Adverse event discontinuations were low (IBS-C: T 1.2% v P 2.4% and IBS-M: T 2.5% v P 3.6%). Most frequent AEs (with discontinuations) were diarrhea (1.1%), headache (0.6%) and nausea (0.3%). No clinically significant diarrhea or colitis of any type was reported.

[2] = system: patients with constipation predominant and alternating forms of IBS; settings: literature abstract; cited from earlier work

With [H]/N=C(/NCCCCC)N/N=C/c1c[nH]c2ccc(OC)cc12 [T, tegaserod] the “satisfactory relief of IBS symptoms over a 4-week treatment, odds ratio” value ([1]; IBS-C and IBS-M cohorts, T 6 mg bid vs placebo, 95% CI: 1.35, 2.25, p<0.001) was 1.75, the “percentage of patients experiencing satisfactory relief of IBS symptoms (75% rule)” value ([1]; IBS-C cohort, T 6 mg bid, 4 weeks, placebo 28.9%, p=0.008) was 43.3% and the “days/week with no BMs (mean)” value ([1]; IBS-C cohort, T 6 mg bid, placebo 2.18) was 2.31 days/week. For the same molecule, the Adverse event discontinuations ([1]; IBS-C cohort, T 6 mg bid, placebo 2.4%) was 1.2%, the “stool consistency score using a 7-patient scale (mean)” value ([1]; IBS-C cohort, T 6 mg bid, placebo 2.89) was 3.53 and the “days/wk with straining (mean)” value ([1]; IBS-C cohort, T 6 mg bid, placebo 3.55) was 3.08 days/wk. For the same molecule, the “weekly BM frequency (mean)” value ([1]; IBS-C cohort, T 6 mg bid, placebo 6.06) was 6.88, the “percentage of patients experiencing satisfactory relief of IBS symptoms (75% rule)” value ([1]; IBS-M cohort, T 6 mg bid, 4 weeks, placebo 36.3%, p=0.010) was 52.3% and the “days/week with no BMs (mean)” value ([1]; IBS-M cohort, T 6 mg bid, placebo 1.68) was 1.39 days/week. The “days/wk with straining (mean)” value ([1]; IBS-M cohort, T 6 mg bid, placebo 2.87) was 2.42 days/wk, the “stool consistency score using a 7-patient scale (mean)” value ([1]; IBS-M cohort, T 6 mg bid, placebo 3.49) was 3.95 and the Adverse event discontinuations ([1]; IBS-M cohort, T 6 mg bid, placebo 3.6%) was 2.5%. The “weekly BM frequency (mean)” value ([1]; IBS-M cohort, T 6 mg bid, placebo 8.34) was 9.78, the “treating the overall symptoms of IBS in patients with a mixed or alternating bowel habit (conclusion)” value ([1]; IBS-M, T 6 mg bid, 4 weeks) was “effective and safe” and the “Most frequent AEs (with discontinuations): diarrhea” value ([1]; treatment group not stated) was 1.1%. For the same molecule, the “Most frequent AEs (with discontinuations): headache” value ([1]; treatment group not stated) was 0.6%, the “Most frequent AEs (with discontinuations): nausea” value ([1]; treatment group not stated) was 0.3% and the “safety and tolerability profile” value [2] was “favourable safety and tolerability profile”.
